According to PMC11897524 (Frontiers in Pharmacology, 2025):

Key:
STAT3 [1] = target: T1, STAT3 (Homo sapiens, UniProt P40763); test: STAT3 binding inhibition assay; design: purchased Abcam
Target sequence in this assay (P40763 whole entry): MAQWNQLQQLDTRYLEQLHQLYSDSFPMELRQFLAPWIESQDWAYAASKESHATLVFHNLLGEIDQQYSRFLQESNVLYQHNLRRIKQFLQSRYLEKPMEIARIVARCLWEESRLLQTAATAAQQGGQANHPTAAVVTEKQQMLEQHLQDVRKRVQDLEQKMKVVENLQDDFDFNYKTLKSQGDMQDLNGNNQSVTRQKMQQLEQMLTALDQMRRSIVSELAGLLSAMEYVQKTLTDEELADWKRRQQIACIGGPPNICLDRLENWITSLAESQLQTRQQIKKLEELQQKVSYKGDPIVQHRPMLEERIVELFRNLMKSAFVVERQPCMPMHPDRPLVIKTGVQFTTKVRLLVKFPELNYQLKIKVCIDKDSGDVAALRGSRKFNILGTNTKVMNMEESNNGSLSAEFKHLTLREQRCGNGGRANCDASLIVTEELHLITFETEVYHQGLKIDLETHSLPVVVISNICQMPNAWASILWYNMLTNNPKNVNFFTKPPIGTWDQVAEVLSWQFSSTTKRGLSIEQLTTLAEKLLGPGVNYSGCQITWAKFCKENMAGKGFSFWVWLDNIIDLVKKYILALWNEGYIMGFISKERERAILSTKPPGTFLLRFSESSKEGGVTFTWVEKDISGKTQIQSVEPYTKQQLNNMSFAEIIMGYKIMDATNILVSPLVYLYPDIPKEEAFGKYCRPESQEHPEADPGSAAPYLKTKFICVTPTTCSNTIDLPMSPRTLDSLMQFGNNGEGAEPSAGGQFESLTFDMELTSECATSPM

shControl-CAKI-2 cells = test: MTT assay on shRNA-transfected CAKI-2 cells; type: cell-based; conditions: Homo sapiens, CAKI-2 stably expressing Control shRNA, 48 h, read-out: IC50 (μM) ± SD shControl-CAKI-2
Experimental: (§1) The effect of hit compounds on cytotoxicity was determined as previously reported ([Ding et al., 2020]). In brief, cells treated with the tested compounds were added with MTT reagent to form formazan crystals, and then the optical density (OD) values at 570 nm were determined after the crystals were dissolved in DMSO. […] Next, the values of IC50 of the selected compounds against more RCC cell lines were determined. The 5 × 10^3 cells in 100 μL culture medium were injected into each well of a 96-well plate and cultured overnight. Add different concentrations of compounds and incubate for 48 h. Then 100 μL of MTT (0.5 mg/mL) solution was added to the 96-well plate and maintained at 37°C for 4 h. Finally, 200 μL of DMSO was added and shaken for 10 min. The OD values at 570 nm were determined by a Synergy 4 microplate reader.
(§2) ^aIC50 (μM) is the concentration of compound needed to reduce cell growth by 50% following 48 h cell treatment with BST-4. shControl-CAKI-2: CAKI-2 cells stably expressing Control shRNA; shBRD4-CAKI-2 cells: CAKI-2 cells stably expressing BRD4 shRNA; shSTAT3-CAKI-2 cells: CAKI-2 cells stably expressing STAT3 shRNA; shBRD4/STAT3-CAKI-2 cells: CAKI-2 cells stably expressing BRD4/STAT3 shRNA. Each experiment was performed at least three times. Data are presented as the mean ± SD.

shBRD4-CAKI-2 cells = test: MTT assay on shRNA-transfected CAKI-2 cells; type: cell-based; conditions: Homo sapiens, CAKI-2 stably expressing BRD4 shRNA, 48 h, read-out: IC50 (μM) ± SD shBRD4-CAKI-2
Experimental: as §1, §2

[2] = test system: shBRD4/STAT3-CAKI-2 cells; test: MTT assay on shRNA-transfected CAKI-2 cells; type: cell-based; conditions: Homo sapiens, CAKI-2 stably expressing BRD4/STAT3 shRNA, 48 h, read-out: IC50 (μM) ± SD shBRD4/STAT3-CAKI-2
Experimental: as §1, §2

shSTAT3-CAKI-2 cells = test: MTT assay on shRNA-transfected CAKI-2 cells; type: cell-based; conditions: Homo sapiens, CAKI-2 stably expressing STAT3 shRNA, 48 h, read-out: IC50 (μM) ± SD shSTAT3-CAKI-2
Experimental: as §1, §2

STAT6 = STAT6 (Homo sapiens, UniProt P42226); test: Inhibitory effect on BET and STAT family members; type: binding
Sequence of STAT6 (P42226 whole entry): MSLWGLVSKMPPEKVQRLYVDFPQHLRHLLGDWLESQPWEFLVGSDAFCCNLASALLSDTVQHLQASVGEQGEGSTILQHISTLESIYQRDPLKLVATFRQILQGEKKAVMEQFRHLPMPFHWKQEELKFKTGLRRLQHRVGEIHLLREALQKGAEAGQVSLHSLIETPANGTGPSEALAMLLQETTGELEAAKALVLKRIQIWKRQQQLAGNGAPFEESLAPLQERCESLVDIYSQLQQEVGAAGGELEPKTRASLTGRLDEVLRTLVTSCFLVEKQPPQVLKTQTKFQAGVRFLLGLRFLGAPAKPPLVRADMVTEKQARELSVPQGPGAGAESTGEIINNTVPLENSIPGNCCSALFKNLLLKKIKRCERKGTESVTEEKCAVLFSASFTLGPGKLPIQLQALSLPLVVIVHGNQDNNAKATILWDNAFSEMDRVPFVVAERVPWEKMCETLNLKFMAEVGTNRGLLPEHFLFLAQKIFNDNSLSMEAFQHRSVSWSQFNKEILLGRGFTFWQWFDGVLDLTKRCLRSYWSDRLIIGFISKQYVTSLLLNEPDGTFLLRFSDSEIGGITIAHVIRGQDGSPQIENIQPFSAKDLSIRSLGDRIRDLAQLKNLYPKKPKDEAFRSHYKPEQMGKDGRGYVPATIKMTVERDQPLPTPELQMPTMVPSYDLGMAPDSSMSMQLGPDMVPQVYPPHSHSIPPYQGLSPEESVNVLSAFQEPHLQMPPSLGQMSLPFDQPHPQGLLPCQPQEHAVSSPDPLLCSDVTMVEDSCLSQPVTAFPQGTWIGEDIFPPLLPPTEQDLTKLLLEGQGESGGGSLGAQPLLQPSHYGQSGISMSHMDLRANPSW
Description: TABLE 4 The inhibitory effect of BST-4 on other members of the BET and STAT families. | column: IC50 (μM)

STAT3 [3] = target: T1, STAT3; test: NanoBRET assay in HEK293T cells; type: cell-based; design: NanoLuc BRD4/STAT3 FL Fusion Vector DNA; expressed in transfected cells; host or cells: HEK293T
Experimental: (§3) The method was performed as previously reported ([Horai et al., 2024]). Briefly, HEK293T cells were seeded in dishes and allow the cells to attach and recover for overnight. The mixture of Histone H4 HaloTag Fusion vector DNA, NanoLuc BRD4/STAT3 FL Fusion Vector DNA, opti-MEM, and FuGENE HD was added dropwise to the HEK293T cells followed by incubation for 20–24 h at 37°C and 5% CO2 and allow the proteins to express. The cells were collected and re-seeded in 384 well plates. HaloTag NanoBRET 618 Ligand was added to plate and allow the cells to attach and recover for 4 h. Serially diluted compounds were transferred to the plate and incubated the plate overnight. Then NanoBRET Nano-Glo Substrate in Opti-MEM was added, and shake plate to mix. The donor emission (450 nm) and acceptor emission (610 nm), BRET signal, were measured within 10 min of substrate addition using microplate reader (Envision, PerkinElmer). Data analysis was done by measuring the ratio of acceptor emission to donor emission (BRET ratio). IC50 values and curve fits were obtained using GraphPad Prism 7.0 software.
Target sequence in this assay (P40763 2-770): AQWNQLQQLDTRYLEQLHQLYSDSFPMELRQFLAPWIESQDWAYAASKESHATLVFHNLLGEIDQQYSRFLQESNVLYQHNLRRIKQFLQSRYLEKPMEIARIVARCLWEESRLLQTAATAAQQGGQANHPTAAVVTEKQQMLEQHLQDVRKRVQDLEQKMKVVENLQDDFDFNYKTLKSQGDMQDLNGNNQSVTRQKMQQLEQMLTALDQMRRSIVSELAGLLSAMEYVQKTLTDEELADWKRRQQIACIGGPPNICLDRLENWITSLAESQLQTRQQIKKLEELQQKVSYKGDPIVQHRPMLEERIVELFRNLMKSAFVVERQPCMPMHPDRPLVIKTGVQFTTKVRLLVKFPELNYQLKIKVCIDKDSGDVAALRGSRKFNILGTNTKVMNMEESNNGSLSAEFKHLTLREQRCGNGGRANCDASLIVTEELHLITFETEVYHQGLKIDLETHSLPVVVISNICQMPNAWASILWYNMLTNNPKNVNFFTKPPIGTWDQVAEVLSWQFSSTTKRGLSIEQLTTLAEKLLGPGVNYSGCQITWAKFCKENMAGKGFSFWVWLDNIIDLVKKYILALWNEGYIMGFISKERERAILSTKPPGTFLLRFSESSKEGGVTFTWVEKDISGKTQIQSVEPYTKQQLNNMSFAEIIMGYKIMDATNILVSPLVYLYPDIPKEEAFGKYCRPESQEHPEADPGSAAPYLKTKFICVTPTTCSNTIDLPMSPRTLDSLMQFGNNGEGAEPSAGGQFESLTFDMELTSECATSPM

BRD4 = BRD4 (Homo sapiens, UniProt O60885); test: NanoBRET assay in HEK293T cells; type: cell-based; design: NanoLuc BRD4/STAT3 FL Fusion Vector DNA; expressed in transfected cells; host or cells: HEK293T
Experimental: as §3

CAKI-2 cells = test: MTT cytotoxicity assay; type: cell-based, human
Experimental: Human normal renal cortical proximal tubular epithelial cell line HK-2 and human renal carcinoma cell lines CAKI-2, SLR-23, 769-P, A704 and RCC4 were previously purchased from the American Type Culture Collection (ATCC, Manassas, VA, USA) or the European Collection of Cell Cultures (ECACC, Salisbury, United Kingdom). HK2, A704, and RCC4 cells were maintained in high glucose DMEM supplemented with 10% FBS and 1% penicillin/streptomycin. SLR-23 and […] cells were cultured in RPMI-1640 medium with 10% FBS and 1% penicillin/streptomycin. CAKI-2 cells were maintained in McCoy’s 5A medium supplemented with 10% FBS and 1% penicillin/streptomycin. All the cell lines were cultured at 37°C in a humidified atmosphere of 5% CO2 and 95% air.
as §1

[4] = test system: panel of 76 human kinases; test: SelectScreen kinase selectivity panel; type: biochemical
Experimental: The kinase selectivity profile of BST-4 was performed by the SelectScreen kinase profiling service (Thermo Fisher Scientific). Kinase selectivity assay was performed using Z′-LYTE ™ screening protocol kit. Briefly, the test compounds were screened in 1% DMSO (final). For 10-point titrations, perform a 3-fold dilution starting at a starting concentration of 50 µM. Then 2.5 µL 4× test compound, 2.4 µL kinase buffer, 5 µL 2× kinase mixture and 2.5 µL 4× ATP solution was added in black 384-well plate. After shaking for 30 s, the plates were incubated for 60 min at room temperature. Add developing reagent solution and shake the plate for 30 s, then incubate for 1 h at room temperature. The Fluorescence intensity per well was read using a fluorescence plate reader. SelectScreen® Kinase Profiling Service used XLfit from IDBS. The dose response curve was curve fit to model number 205 (sigmoidal dose-response model) and inhibition rates were calculated. 50% inhibition was used as a activity threshold. IC50 values were calculated based on curve fitting.

STAT5a = STAT5a (Homo sapiens, UniProt P42229); test: Binding affinity to BET and STAT family members
Sequence of STAT5a (P42229 whole entry): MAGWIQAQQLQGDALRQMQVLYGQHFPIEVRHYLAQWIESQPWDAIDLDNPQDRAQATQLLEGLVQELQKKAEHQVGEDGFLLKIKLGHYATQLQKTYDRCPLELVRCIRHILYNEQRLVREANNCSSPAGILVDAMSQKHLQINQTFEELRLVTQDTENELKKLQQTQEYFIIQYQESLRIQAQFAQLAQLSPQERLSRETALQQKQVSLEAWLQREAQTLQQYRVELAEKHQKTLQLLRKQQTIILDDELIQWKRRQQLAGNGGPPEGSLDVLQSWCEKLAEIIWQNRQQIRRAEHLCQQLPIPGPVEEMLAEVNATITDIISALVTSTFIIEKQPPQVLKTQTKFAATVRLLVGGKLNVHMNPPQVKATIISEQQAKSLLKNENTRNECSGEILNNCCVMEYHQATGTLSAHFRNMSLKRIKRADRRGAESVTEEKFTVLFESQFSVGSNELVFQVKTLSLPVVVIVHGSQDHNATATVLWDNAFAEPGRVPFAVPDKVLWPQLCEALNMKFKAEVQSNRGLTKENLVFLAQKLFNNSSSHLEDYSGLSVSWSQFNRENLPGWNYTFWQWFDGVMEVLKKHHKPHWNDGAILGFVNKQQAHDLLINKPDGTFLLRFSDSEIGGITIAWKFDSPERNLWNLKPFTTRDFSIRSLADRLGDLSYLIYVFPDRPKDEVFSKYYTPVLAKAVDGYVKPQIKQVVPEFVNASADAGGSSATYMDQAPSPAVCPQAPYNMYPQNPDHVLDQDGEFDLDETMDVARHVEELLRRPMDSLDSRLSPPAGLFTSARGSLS

IC50 (STAT3 [1]): 8.07 ± 0.51 nM | STAT3 inhibition relative to CJ-1383 (STAT3 [1]; IC50 ratio vs CJ-1383): about 115 fold | IC50 (STAT6): > 10000 nM | IC50 (STAT3 [3]): 5.17 ± 0.09 nM | IC50 (BRD4): 2.58 ± 0.07 nM | inhibition of all 76 kinases at 1 µM ([4]; 1 µM): less than 10% | IC50 ([4]; read-out: IC50 on panel of 76 human kinases, all kinases of the panel): > 10000 nM | Kd (STAT5a): > 10000 nM
Compound: CCS(=O)(=O)Cc1cnc(Oc2c(F)cc(F)cc2OCCCCOc2ccc(/C=C/c3cc(OC)cc(OC)c3)cc2)c(-c2cc(C)c3c(=O)[nH]ccn23)c1 [BST-4]
IC50 (shControl-CAKI-2 cells): 0.76 ± 0.05 µM | IC50 (shBRD4-CAKI-2 cells): 5.09 ± 0.27 µM | IC50 [2]: > 10 µM | IC50 (shSTAT3-CAKI-2 cells): 3.48 ± 0.21 µM | IC50 (CAKI-2 cells; Homo sapiens, CAKI-2, cell growth, 48 h treatment, read-out: IC50 (μM) ± SD CAKI-2): 0.76 ± 0.05 µM | cell inhibitory rate (%) against CAKI-2 cells (CAKI-2 cells; all compounds at the same concentration): more than 95%
